Where two headings read alike, the source gives them in different places.
Tests used:
A549 = test: In vitro cell growth inhibition, resazurin viability assay; assay type: cell-based, human
Experimental: (§1) All the cell lines used in this paper were of human origin and purchased from the American Type Culture Collection (ATCC, Manassas, VA, USA). Colon adenocarcinoma (HT-29), non-small cell lung carcinoma (A549), cervix carcinoma (HeLa) and breast adenocarcinoma (MDA-MB-231) cells were grown in RPMI (HT29) or DMEM (A549, HeLa, MDA-MB-231) medium (Gibco, Milano, Italy). Both media were supplemented with 115 units/mL of penicillin G (Gibco, Milano, Italy), 115 μg/mL of streptomycin (Invitrogen, Milano, Italy) and 10% fetal bovine serum (Invitrogen, Milano, Italy). All cell lines were grown at 37 °C in a humidified 5% CO2 atmosphere. The cells were grown in 2 mL of complete medium.
(§2) Stock solutions were prepared for each compound by dissolving in DMSO at the final concentration of 10 mM.
(§3) The cells were seeded in 96-well plates at the appropriate density for each cell line. The respective cell line densities used for the antiproliferative assay were HeLa and HT29 5000 cells/well, A549 4000 cells/well and MDA-MB-231 7000 cells/well. The total volume of medium was 100 µL. After 24 h, the cells were treated by performing serial 5-fold dilutions of the tested compounds starting from a concentration of 10 μM. All experimental conditions were tested in triplicate for statistical analysis. After 72 h of incubation, 10 μL of 100 μg/mL resazurin solution was added to each well and the plate was re-incubated for 3–4 h. The fluorescence of the wells in each plate was monitored using a Spark 10M spectrophotometer (Tecan Group Ltd., Mannedorf, Switzerland) with a 535 nm excitation wavelength and a 600 nm emission wavelength.

HT29 = test: as above; assay type: cell-based, human
Experimental: as §1, §2, §3

HeLa = test: as above; assay type: cell-based, human
Experimental: as §1, §2, §3

MDA-MB-231 = test: as above; assay type: cell-based, human
Experimental: as §1, §2, §3

[1] = system: MDA-MB-231, HeLa, A549 and HT-29 cancer cell lines; test: Antiproliferative activity stated across the panel of cancer cell lines; assay type: cell-based, human; settings: for IC50: Homo sapiens
Experimental: as §1, §2, §3

HeLa cells = test: Cell cycle analysis by flow cytometry (PI); assay type: cell-based, human
Experimental: For these experiments, HeLa cells were used, which were seeded in 6-well plates at a concentration of 5 × 10^5/well in a final volume of 2 mL culture medium. The cells were then treated with the test compounds for 24 h at the indicated concentrations. After this incubation period, the cells were detached with trypsin-EDTA and harvested by centrifugation. The pellet thus obtained was fixed in 70% ice-cold ethanol.
After this incubation period, the cells were detached with trypsin-EDTA and harvested by centrifugation. The pellet thus obtained was fixed in 70% ice-cold ethanol for at least 1 h. The cells thus fixed were treated with a 0.1% v/v solution of Triton_X-100 in phosphate buffered saline (PBS) containing RNAseA and propidium iodide (PI) at the final concentration of 0.02 mg/mL. The cells were incubated at room temperature for 30 min and then analyzed on a Cytomic FC500 flow cytometer (Beckman Coulter) in the FL3 channel. DNA histograms were analyzed using MultiCycle for Windows (Phoenix Flow Systems, San Diego, CA, USA).

ATR = test: Western blot analysis; assay type: cell-based, human; settings: HeLa, 24 h
Experimental: (§4) Hela cells treated with the test compounds were harvested by centrifugation and then lysed with 0.1% (v/v) Triton X-100 containing RNase A at 0 °C. The protein content of the solutions was measured and analyzed as described previously. The antibodies directed against cyclin B, cdc2 (Y15), ATR,Bcl-2, cleaved caspase-9 (D330) and actin were purchased from Cell Signaling. The membranes were visualized using ECL select (GE Healthcare, Uppsal, Sweden), and images were acquired using an Uvitec-Alliance imaging system.

Bcl-2 = test: Western blot analysis; assay type: cell-based, human; settings: HeLa, 24 h
Experimental: as §4

cdc2 (Y15) = test: Western blot analysis; assay type: cell-based, human; settings: HeLa, 24 h
Experimental: as §4

cleaved caspase-9 (D330) = test: Western blot analysis; assay type: cell-based, human; settings: HeLa, 24 h, 25 and 50 nM
Experimental: as §4

cyclin B = test: Western blot analysis; assay type: cell-based, human; settings: HeLa, 24 h
Experimental: as §4

HeLa cell xenograft = test: Zebrafish xenograft model with DiI-labeled HeLa cells; assay type: in vivo, Zebrafish (Danio rerio); settings: 24 h treatment, 30 or 300 nM
Excerpt: Prior to microinjections into Tg zebrafish embryos (fli1: EGFP), HeLa tumor cells were labeled with the VybrantTM DiI dye (Invitrogen, ThermoFisher, Carlsbad, CA, USA). The fluorescent cells were loaded into borosilicate glass capillary needles (OD/ID: 1.00/0.75 mm, World Precision Instruments (WPI, Friedberg, Germany) and injected (200 cells), through a pneumatic picopump, into the Cuvier duct of 48 hpf embryos previously anesthetized with tricaine (0.02%, Sigma-Aldrich, Milan, Italy).
After injection, the xenograft-harboring larvae were incubated to recover at 34° C in fish water containing phenylthiourea (PTU) to inhibit the pigmentation process. After 2 h from the injection, the embryos were examined to ensure homogeneity of the xenografts. For drug treatments, only successfully injected xenograft larvae were selected, with approximately 200 HeLa fluorescent cells scattered around the caudal area.
The injected xenografts were exposed to the doses of 3d used above with DMSO as control.
For cancer cell imaging and fluorescence quantification, anesthetized embryos were distributed to 96-well plates with one embryo/well. Initially (time 0 h, pre-treatment) and after one-day post-treatment, the tumors were photographed with a Zeiss AxioObserver microscope for live-cell imaging.

**Q.** How did the “fold more potent than CA-4” value (A549; A549 cells) turn out when COc1cc(-c2ccnc3nc(Nc4ccc(C)cc4)nn23)cc(OC)c1OC [Compound 3d, N-(p-Tolyl)-7-(3,4,5-trimethoxyphenyl)-[1,2,4]triazolo[1,5-a]pyrimidin-2-amine] was run?
**A.** 4 fold

**Q.** And the IC50 (A549; Homo sapiens, A549, 72 h, resazurin, mean ± SE)?
**A.** 0.043 ± 0.024 µM

**Q.** And the “fold greater activity than CA-4” value (HT29; HT-29 cells)?
**A.** 100 fold

**Q.** And the IC50 (HT29; Homo sapiens, HT-29, 72 h, resazurin, mean ± SE)?
**A.** 0.03 ± 0.003 µM

**Q.** What about the “fold less potent than CA-4” value (HeLa; HeLa cells) of the same compound?
**A.** 10 fold

**Q.** And the IC50 (HeLa; Homo sapiens, 72 h, resazurin, mean ± SE)?
**A.** 0.038 ± 0.009 µM

**Q.** What about the IC50 (MDA-MB-231; Homo sapiens, MDA-MB-231, 72 h, resazurin, mean ± SE) of the same compound?
**A.** 0.43 ± 0.11 µM

**Q.** What about the “fold less potent than CA-4” value (MDA-MB-231; MDA-MB-231 cells) of the same compound?
**A.** 100 fold

**Q.** What about the “fold less active than 2a as antiproliferative agent” value ([1]; HeLa, HT-29 and A549 cells) of the same compound?
**A.** 1-2 fold

**Q.** What about the IC50 ([1]; in the four tumor cell lines examined, read-out: IC50s, range) of the same compound?
**A.** 30 to 430 nM

**Q.** And the IC50 ([1]; on HeLa, A549 and HT-29 cancer cells, read-out: IC50 values, range)?
**A.** 30 to 43 nM

**Q.** What about the “fold more potent than the 7-(3′,4′,5′-trimethoxyanilino) counterpart” value ([1]; antiproliferative agent) of the same compound?
**A.** 4–30 fold

**Q.** What about the “concentration at which increase in G2/M cells was evident” value (HeLa cells; 24 h) of the same compound?
**A.** 25 nM

**Q.** What about the “effect on cell cycle (G2/M)” value (HeLa cells; 24 h, 10, 25 or 50 nM) of the same compound?
**A.** significant G2/M arrest in a concentration-dependent manner

**Q.** What about the “ATR phosphorylation (Ser428)” value (ATR) of the same compound?
**A.** considerable increase in ATR phosphorylation (Ser428)

**Q.** And the Bcl-2 expression (Bcl-2)?
**A.** reduction in Bcl-2 expression starting at 10 nM

**Q.** And the “cdc2 phosphorylation (Y15)” value (cdc2 (Y15))?
**A.** significant reduction in cdc2 phosphorylation (Y15)

**Q.** And the caspase-9 cleavage (cleaved caspase-9 (D330))?
**A.** appearance of the cleaved fragment of caspase-9

**Q.** What about the “cyclin B expression” value (cyclin B) of the same compound?
**A.** increase in cyclin B expression

**Q.** And the “fluorescence intensity of tumor xenografts” value (HeLa cell xenograft)?
**A.** decreased in a dose-dependent manner, reaching statistical significance at 300 nM

**Q.** And the “number of disseminated cancer cells” value (HeLa cell xenograft)?
**A.** significantly reduced the number of disseminated cancer cells
